Laboratory results: patent US20110065756A1, “METHODS AND COMPOSITIONS FOR TREATMENT OF OBESITY-RELATED DISEASES” (priority 2009, published 2011)

Experiments:
[1] = Rosiglitazone treatment of diet-induced obese mice: body weight, fasting plasma glucose and insulin, IPGTT; assay type: in vivo; details: obese C57BL/6J mice, 10 mg/kg/day by gavage, vs vehicle
Procedure: Ten adult (6 week-old) male C57BL/6J mice were purchased from the Jackson Laboratory. Mice were housed in a pathogen-free barrier facility (12 h light/12 h dark cycle). […] Mice were weighed every 4 weeks. After 12 weeks blood was collected after a 6 hour fast and plasma glucose levels were analyzed using the Accu-Check glucose meter. Subsequently, mice were treated with rosiglitazone (10 mg/kg/day in 1% carboxymethylcellulose in water) or vehicle by gavaging for 10 days. On day 10 the animals were subjected to an intraperitoneal glucose tolerance test (IPGTT) after a 16 hr overnight fast. Plasma glucose levels were determined at 0, 15, 30, 60 and 120 min using an Accu-Check glucose meter; at each time point 10 μl blood was collected in EDTA-coated tubes (Microvette CB300, Sarstedt, Newton, N.C.) for determination of insulin levels using an ELISA specific for mouse insulin (Alpco Diagnostics, Salem, N.H.). After the IPGTT, mice received a final treatment with rosiglitazone or vehicle (day 11) and were euthanized the next day (day 12) after a 6 hour fast under anaesthesia with isoflurane (Baxter). The epididymal fat pads, subcutaneous fat pads, liver and kidneys were harvested and stored at −80° C. for further analysis.
Results are expressed as mean±SEM. […]

[2] = clinical use; cited from earlier work
[3] = RECORD, cited from earlier work

| Compound | body weight [1] | incidence of hepatitis and potential liver failure [2] | cardiovascular death, myocardial infarction, or stroke ([3]; 5-7 years follow-up, vs active control group) | upper and distal lower limb fracture rates ([3]; particularly in women) | heart failure that caused either hospital admission or death ([3]; rosiglitazone group (29 in active control group)) | risk difference per 1000 person-years for heart failure ([3]; vs active control, interval 1.1-4.1) | hazard ratio [HR] for heart failure ([3]; vs active control, interval 1.35-3.27) |
| --- | --- | --- | --- | --- | --- | --- | --- |
| CN(CCOc1ccc(CC2SC(=O)NC2=O)cc1)c1ccccn1 (centres unmarked) [rosiglitazone] | did not influence weight | have not shown higher incidence | No difference was observed | increased | 61 patients | 2.6 | 2.10 |
| CCc1ccc(CCOc2ccc(CC3SC(=O)NC3=O)cc2)nc1 (centres unmarked) [pioglitazone] | – | have not shown higher incidence | – | – | – | – | – |
